Measured values published in ChEMBL document CHEMBL1152596, “Inhibition of serotonin and norepinephrine reuptake and inhibition of phosphodiesterase by multi-target inhibitors as potential agents for depression” (Bioorg Med Chem, 2009).

Experiments:
[1] = target: T1, Sodium-dependent dopamine transporter (Homo sapiens, UniProt Q01959)
Description: Inhibition of [3H]DA reuptake at human DAT expressed in HEK293 cells

[2] = target: T2, Sodium-dependent noradrenaline transporter (Homo sapiens, UniProt P23975); assay: biochemical
Description: Displacement of [125I]RTI-55 from human recombinant NET expressed in HEK293 cells by scintillation counting

[3] = target: T1, Sodium-dependent dopamine transporter; assay: biochemical
Description: Displacement of [125I]RTI-55 from human recombinant DAT expressed in HEK293 cells

[4] = target: T3, Sodium-dependent serotonin transporter (Homo sapiens, UniProt P31645)
T3 sequence (P31645 whole entry): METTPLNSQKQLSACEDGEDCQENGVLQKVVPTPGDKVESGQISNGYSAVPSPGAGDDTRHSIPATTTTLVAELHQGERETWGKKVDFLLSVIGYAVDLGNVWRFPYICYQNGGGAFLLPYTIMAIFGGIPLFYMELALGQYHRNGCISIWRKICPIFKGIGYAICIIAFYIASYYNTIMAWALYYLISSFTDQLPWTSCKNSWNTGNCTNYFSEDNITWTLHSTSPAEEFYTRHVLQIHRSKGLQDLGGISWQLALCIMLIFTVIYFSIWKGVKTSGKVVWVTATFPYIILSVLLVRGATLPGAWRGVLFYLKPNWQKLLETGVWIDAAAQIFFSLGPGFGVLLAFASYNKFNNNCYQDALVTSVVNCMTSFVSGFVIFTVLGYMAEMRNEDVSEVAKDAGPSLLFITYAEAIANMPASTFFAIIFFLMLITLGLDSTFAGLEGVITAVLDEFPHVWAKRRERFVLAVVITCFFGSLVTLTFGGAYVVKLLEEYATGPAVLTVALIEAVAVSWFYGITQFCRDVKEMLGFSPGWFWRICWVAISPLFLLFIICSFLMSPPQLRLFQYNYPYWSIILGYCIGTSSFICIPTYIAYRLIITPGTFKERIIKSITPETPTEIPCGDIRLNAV
Description: Inhibition of [3H]5HT reuptake at human SERT expressed in HEK293 cells

[5] = target: 3',5'-cyclic-AMP phosphodiesterase 4D (Homo sapiens, UniProt Q08499)
Chain of 3',5'-cyclic-AMP phosphodiesterase 4D (Q08499 whole entry): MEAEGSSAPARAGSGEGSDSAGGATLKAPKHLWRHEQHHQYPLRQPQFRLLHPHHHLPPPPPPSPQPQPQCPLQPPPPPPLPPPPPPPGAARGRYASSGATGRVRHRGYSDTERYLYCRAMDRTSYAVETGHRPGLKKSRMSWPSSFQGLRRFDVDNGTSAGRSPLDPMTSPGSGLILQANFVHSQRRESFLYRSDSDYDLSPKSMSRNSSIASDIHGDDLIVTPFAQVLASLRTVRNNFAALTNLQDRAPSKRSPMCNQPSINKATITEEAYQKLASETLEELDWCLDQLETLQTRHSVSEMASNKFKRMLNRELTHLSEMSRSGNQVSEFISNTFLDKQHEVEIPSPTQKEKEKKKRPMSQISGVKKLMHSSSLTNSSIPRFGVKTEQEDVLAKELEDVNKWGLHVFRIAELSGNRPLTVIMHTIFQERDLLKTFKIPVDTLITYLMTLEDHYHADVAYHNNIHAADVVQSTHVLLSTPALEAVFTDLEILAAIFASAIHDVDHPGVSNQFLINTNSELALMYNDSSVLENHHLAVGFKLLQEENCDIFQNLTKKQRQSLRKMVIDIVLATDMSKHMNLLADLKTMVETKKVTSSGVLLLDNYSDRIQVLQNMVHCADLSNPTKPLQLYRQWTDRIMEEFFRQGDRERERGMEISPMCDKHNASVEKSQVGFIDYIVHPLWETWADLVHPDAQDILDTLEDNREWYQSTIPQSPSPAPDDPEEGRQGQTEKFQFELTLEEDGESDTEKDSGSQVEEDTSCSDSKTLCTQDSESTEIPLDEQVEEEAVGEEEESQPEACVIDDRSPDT
Description: Inhibition of PDE4D2 assessed as cAMP hydrolysis

[6] = target: T2, Sodium-dependent noradrenaline transporter
Description: Inhibition of [3H]NE reuptake at human NET expressed in HEK cells

[7] = target: T3, Sodium-dependent serotonin transporter; assay: biochemical
Description: Displacement of [125I]RTI-55 from human recombinant SERT expressed in HEK293 cells

T2 sequence (P23975 whole entry): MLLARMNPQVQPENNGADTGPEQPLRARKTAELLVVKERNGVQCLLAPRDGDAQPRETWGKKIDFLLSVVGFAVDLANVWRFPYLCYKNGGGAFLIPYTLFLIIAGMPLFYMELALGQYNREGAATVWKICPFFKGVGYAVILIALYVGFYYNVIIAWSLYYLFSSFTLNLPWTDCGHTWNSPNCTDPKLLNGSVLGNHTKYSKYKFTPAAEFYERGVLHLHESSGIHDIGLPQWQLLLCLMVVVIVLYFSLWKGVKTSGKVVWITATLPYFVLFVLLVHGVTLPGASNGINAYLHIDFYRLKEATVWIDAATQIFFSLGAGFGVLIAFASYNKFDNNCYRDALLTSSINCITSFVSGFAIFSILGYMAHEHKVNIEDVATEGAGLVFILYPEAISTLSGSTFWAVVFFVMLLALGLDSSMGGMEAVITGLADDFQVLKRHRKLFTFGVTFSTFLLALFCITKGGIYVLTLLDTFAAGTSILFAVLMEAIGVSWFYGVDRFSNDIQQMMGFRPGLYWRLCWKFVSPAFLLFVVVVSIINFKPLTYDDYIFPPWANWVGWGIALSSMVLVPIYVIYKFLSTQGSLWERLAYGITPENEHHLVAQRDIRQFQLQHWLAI
T1 sequence (Q01959 whole entry): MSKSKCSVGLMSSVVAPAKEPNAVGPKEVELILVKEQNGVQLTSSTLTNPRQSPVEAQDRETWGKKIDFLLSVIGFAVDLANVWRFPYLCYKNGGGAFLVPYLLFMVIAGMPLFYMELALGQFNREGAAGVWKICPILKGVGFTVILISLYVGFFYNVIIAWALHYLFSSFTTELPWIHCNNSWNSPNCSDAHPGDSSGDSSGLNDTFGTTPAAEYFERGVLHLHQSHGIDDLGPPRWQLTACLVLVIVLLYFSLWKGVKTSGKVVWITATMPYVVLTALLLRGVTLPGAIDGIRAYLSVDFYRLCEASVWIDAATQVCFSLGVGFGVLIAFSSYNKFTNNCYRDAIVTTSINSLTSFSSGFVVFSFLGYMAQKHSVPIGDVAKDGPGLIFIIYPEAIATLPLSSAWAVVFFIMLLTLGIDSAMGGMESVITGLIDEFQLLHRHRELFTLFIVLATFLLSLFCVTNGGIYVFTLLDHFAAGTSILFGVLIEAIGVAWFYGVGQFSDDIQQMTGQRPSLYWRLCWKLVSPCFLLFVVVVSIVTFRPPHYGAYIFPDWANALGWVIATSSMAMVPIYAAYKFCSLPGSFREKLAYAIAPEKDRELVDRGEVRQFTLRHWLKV

SMILES | IC50 [1] [µM] | Ki [2] [µM] | Ki [3] [µM] | IC50 [4] [µM] | IC50 [5] [µM] | IC50 [6] [µM] | Ki [7] [µM]
COc1ccc(C2=NN(CCCCCNCC[C@@H](Oc3cccc4ccccc34)c3cccs3)C(=O)[C@@H]3CC=CC[C@H]23)cc1OC | 1.79 | 3.24 | 0.857 | 0.442 | 0.045 | 2.1 | 0.127
COc1ccc(C2=NN(CCCCCNCC[C@H](Oc3cccc4ccccc34)c3cccs3)C(=O)[C@@H]3CC=CC[C@H]23)cc1OC | 6.63 | > 100 | 4.6 | 0.404 | 0.023 | 2.19 | 0.726
COc1ccc(C2=NNC(=O)[C@@H]3CC=CC[C@H]23)cc1OC (relative stereo) | > 100 | > 100 | > 100 | > 100 | 0.213 | > 100 | > 100
NCC[C@H](Oc1cccc2ccccc12)c1cccs1 [(S)-NORDULOXETINE] | > 10 | 2.4 | > 10 | 0.0256 | > 100 | 0.445 | 0.018
NCC[C@@H](Oc1cccc2ccccc12)c1cccs1 [R-NORDULOXETINE] | > 10 | 0.953 | 3.55 | 0.0068 | > 100 | 0.188 | 0.0083
